Experimental data from paper PMC10388696 (Clinical cancer research : an official journal of the …, 2023).

Columns and labels:
[1] = QT interval corrected with Fridericia's method; assay type: in vivo, human; conditions: any dose level (data not shown)
[2] = Clinical plasma pharmacokinetics; conditions: human, in vivo
[3] = system: cancer cell proliferation; conditions: in vitro; cited from earlier work
T-cell activation = conditions: in vitro; cited from earlier work
PI3K-γ = conditions: cited from earlier work
advanced solid tumors = assay: Tumor response by RECIST 1.1; assay type: in vivo, human; conditions: monotherapy Part A, 20 mg, one patient with peritoneal mesothelioma
[4] = Safety: treatment-related AEs and DLTs; assay type: in vivo
[5] = system: multiple syngeneic models; conditions: in vivo; cited from earlier work
[6] = across preclinical species; cited from earlier work

C[C@H](NC(=O)c1c(N)nn2cccnc12)c1cc2cccc(C#Cc3cnn(C)c3)c2c(=O)n1-c1ccccc1 [Eganelisib]
effects on QTcF [1]: No clinically relevant effects
half-life ([2]; 10 mg, terminal t1/2): 10.6 to 23.6 h
half-life ([2]; 10 mg, terminal t1/2, geometric mean): 39.8 h
dose proportionality of exposure (Cmax and AUC) ([2]; 60 mg): approximately dose proportional
half-life ([2]; effective t1/2 calculated from the AR estimate): 9.3 to 25.7 h
Tmax ([2]; po): 1 to 6 h
half-life ([2]; t1/2): 10.6 to 39.8 h
direct effect on T-cell activation (T-cell activation): no direct effect
ALT increased, treatment-related, any grade ([4]; human, in vivo): 3 (16%) n (%)
AST increased, treatment-related, any grade ([4]; human, in vivo): 4 (21%) n (%)
Fatigue, treatment-related, any grade ([4]; human, in vivo): 2 (11%) n (%)
Grade ≥3 treatment-related AEs ([4]; human, in vivo): 2 (11%) n (%)
Headache, treatment-related, any grade ([4]; human, in vivo): 2 (11%) n (%)
Rash, treatment-related, any grade ([4]; human, in vivo): 3 (16%) n (%)
hepatic AEs ([4]; human, in vivo): 33%
increased ALT, treatment-related grade ≥3 ([4]; human, in vivo): 18%
increased AST, treatment-related grade ≥3 ([4]; human, in vivo): 18%
increased alkaline phosphatase, treatment-related grade ≥3 ([4]; human, in vivo): 5%
patients who discontinued for a treatment-related AE ([4]; human, in vivo): 8%
patients with dose reduction for a treatment-related AE ([4]; human, in vivo): 3%
treatment-related SAEs ([4]; human, in vivo): 2 (5%) n (%)
treatment-related serious adverse events ([4]; human, in vivo): 5%
grade 5 treatment-related AEs ([4]; monotherapy): no grade 5 treatment-related AEs
MTD ([4]; monotherapy, 10–60 mg QD): no dose of eganelisib monotherapy met MTD criteria
tumor growth in syngeneic models [5]: tumor growth delay
oral bioavailability [6]: ≥ 31%
